Laboratory results as given in patent US9856279B2 (AGIOS PHARMACEUTICALS, INC, priority 2011, dated 2018).
pIC50: −log10 of the molar value. Read-outs that look alike come from different tables or passages of the source.

Biological target: IDH1 R132H (Homo sapiens, UniProt O75874, R132H)
Assay: Assay for IDH1 R132H inhibitors (NADPH/aKG, resazurin detection)
Assay type: biochemical
How it was run: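 Read-out is resorufin fluorescence (Ex544/Em590) 5 min after adding a 30 μM resazurin detection mix. Before that, mutant enzyme (0.2 μg/ml in its mix) ran 50 min at room temperature with compound, 8 uM NADPH and 2 mM aKG (mix levels) in Tris pH 7.5 with NaCl, MgCl2, BSA.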

[1] = enzyme assay of Example 12, read-out: IDH1R132H IC50
[2] = Table 3, enzyme assay, 50 minutes at room temperature, read-out: IC50 (IDH1 R132H Inhibition)

Sequence of IDH1 R132H (O75874 whole entry R132H): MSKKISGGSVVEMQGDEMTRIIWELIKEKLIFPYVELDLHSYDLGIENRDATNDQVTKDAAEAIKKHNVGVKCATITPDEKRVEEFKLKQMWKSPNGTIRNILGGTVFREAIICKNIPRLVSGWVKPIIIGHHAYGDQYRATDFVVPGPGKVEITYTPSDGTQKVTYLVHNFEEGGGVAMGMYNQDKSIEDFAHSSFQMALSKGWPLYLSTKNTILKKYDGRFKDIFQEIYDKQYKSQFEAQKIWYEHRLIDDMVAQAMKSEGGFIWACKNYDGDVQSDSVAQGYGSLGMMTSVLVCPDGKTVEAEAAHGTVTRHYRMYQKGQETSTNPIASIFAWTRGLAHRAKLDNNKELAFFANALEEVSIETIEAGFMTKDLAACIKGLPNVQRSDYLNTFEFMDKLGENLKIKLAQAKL

Structure (SMILES) | pIC50 [1] | pIC50 [2]
COCCC(=O)N1CCN(c2nc(C3CC3)c(-c3cnc(OC)c4ccccc34)cc2C#N)C[C@H]1C [Compound 474, (R)-6-cyclopropyl-5-(1-methoxy-isoquinolin-4-yl)-2-[4-(3-methoxy-propionyl)-3-methyl-piperazin-1-yl]-nicotinonitrile] | > 6.30 | 
COCCC(=O)N1CCN(c2nc(C3CC3)c(-c3cccc(N(C)C)c3)c(C)c2C#N)C[C@H]1C [Compound 362, (R)-6-cyclopropyl-5-(3-dimethylamino-phenyl)-2-[4-(3-methoxy-propionyl)-3-methyl-piperazin-1-yl]-4-methyl-nicotinonitrile] | > 6.30 | 
N#Cc1cc(-c2cccc3c2CNC3=O)c(C2CC2)nc1N1CCN(C(=O)C2CC2)[C@H](C2CC2)C1 [Compound 464, (R)-2-(4-(Cyclopropanecarbonyl)-3-cyclopropylpiperazin-1-yl)-6-cyclopropyl-5-(1-oxoisoindolin-4-yl)nicotinonitrile] | 6.00 to 6.30 | 
COCCC(=O)N1CCN(c2nc(C(C)C)c(-c3cc4ccccc4o3)cc2C#N)C[C@H]1C [Compound 209, (R)-5-(benzofuran-2-yl)-6-isopropyl-2-(4-(3-methoxypropanoyl)-3-methylpiperazin-1-yl)nicotinonitrile] |  | 5.30 to 6.00
CC1CN(c2nc(-c3ccccc3)c(-c3ccccc3)cc2C#N)CCN1C(=O)c1ccco1 (stereo not drawn) [Compound 117, 2-(4-(furan-2-carbonyl)-3-methylpiperazin-1-yl)-5,6-diphenylnicotinonitrile] |  | 4.82 to 5.30
COCCC(=O)N1CCN(c2nc(C3CC3)c(-c3c(C)cccc3C)cc2C#N)C[C@H]1C [Compound 357, (R)-6-cyclopropyl-5-(2,6-dimethyl-phenyl)-2-[4-(3-methoxy-propionyl)-3-methyl-piperazin-1-yl]-nicotinonitrile] | 6.00 to 6.30 | 
COCCC(=O)N1CCN(c2nc(C3CC3)c(-c3cccc(S(C)(=O)=O)c3)c(C)c2C#N)C[C@H]1C [Compound 329, (R)-6-cyclopropyl-5-(3-methanesulfonyl-phenyl)-2-[4-(3-methoxy-propionyl)-3-methyl-piperazin-1-yl]-4-methyl-nicotinonitrile] | 6.00 to 6.30 | 
COCCC(=O)N1CCN(c2nc(C3CC3)c(N3CCN(C(=O)c4ccccc4)CC3)cc2C#N)C[C@H]1C [Compound 379, (R)-5-(4-benzoylpiperazin-1-yl)-6-cyclopropyl-2-(4-(3-methoxypropanoyl)-3-methylpiperazin-1-yl)nicotinonitrile] | 6.00 to 6.30 | 
COCCC(=O)N1CCN(c2nc(C3CC3)c(-c3cncc4ccccc34)cc2C#N)C[C@H]1C [Compound 242, (R)-6-cyclopropyl-5-(isoquinolin-4-yl)-2-(4-(3-methoxypropanoyl)-3-methylpiperazin-1-yl)nicotinonitrile] |  | ≥ 6.00
N#Cc1cc(-c2cnn(C3CCC(O)C3)c2)c(C2CC2)nc1N1CCN(C(=O)C2CC2)[C@H](C2CC2)C1 (stereo partly drawn) [Compound 493, 2-((R)-4-(cyclopropanecarbonyl)-3-cyclopropylpiperazin-1-yl)-6-cyclopropyl-5-(1-(3-hydroxycyclopentyl)-1H-pyrazol-4-yl)nicotinonitrile] | 6.00 to 6.30 | 
CC(C)c1nc(N2CCN(C(=O)c3ccoc3)[C@H](C)C2)c(C#N)cc1-c1cccc(F)c1 [Compound 161, (R)-5-(3-fluorophenyl)-2-(4-(furan-3-carbonyl)-3-methylpiperazin-1-yl)-6-isopropylnicotinonitrile] |  | 5.30 to 6.00

Now from value to compound:

pIC50 [1] | pIC50 [2] | Structure (SMILES)
6.00 to 6.30 |  | CSCn1cc(-c2cc(C#N)c(N3CCN(C(=O)C4CC4)[C@H](C4CC4)C3)nc2C2CC2)cn1 [Compound 510, (R)-2-(4-(cyclopropanecarbonyl)-3-cyclopropylpiperazin-1-yl)-6-cyclopropyl-5-(1-((methylthio)methyl)-1H-pyrazol-4-yl)nicotinonitrile]
> 6.30 |  | COCCC(=O)N1CCN(c2nc(C3CC3)c(-c3cccnc3OC)cc2C#N)C[C@H]1C [Compound 328, (R)-2-cyclopropyl-2′-methoxy-6-[4-(3-methoxy-propionyl)-3-methyl-piperazin-1-yl]-[3,3]bipyridinyl-5-carbonitrile]
6.00 to 6.30 |  | N#Cc1cc(-c2cccc3cnccc23)c(C2CC2)nc1N1CCN(C(=O)C2CC2)C(C(F)F)C1 (stereo not drawn) [Compound 422, 2-(4-(cyclopropanecarbonyl)-3-(difluoromethyl)piperazin-1-yl)-6-cyclopropyl-5-(isoquinolin-5-yl)nicotinonitrile]
> 6.30 |  | COCCC(=O)N1CCN(c2nc(C3CC3)c(-c3ccc(C(=O)OC)cc3)cc2C#N)C[C@H]1C [Compound 665, (R)-methyl-4-(5-cyano-2-cyclopropyl-6-(4-(3-methoxypropanoyl)-3-methylpiperazin-1-yl)pyridin-3-yl)benzoate]
> 6.30 |  | N#Cc1cc(-c2ccnc(NCCO)n2)c(C2CC2)nc1N1CCN(C(=O)C2CC2)[C@H](C2CC2)C1 [Compound 512, (R)-2-(4-(cyclopropanecarbonyl)-3-cyclopropylpiperazin-1-yl)-6-cyclopropyl-5-(2-(2-hydroxyethylamino)pyrimidin-4-yl)nicotinonitrile]
> 6.30 |  | COCCC(=O)N1CCN(c2nc(C3CC3)c(Nc3ccnc(C(N)=O)c3)cc2C#N)C[C@H]1C [Compound 729, (R)-4-(5-cyano-2-cyclopropyl-6-(4-(3-methoxypropanoyl)-3-methylpiperazin-1-yl)pyridin-3-ylamino)picolinamide]
6.00 to 6.30 |  | N#Cc1cc(-c2cccc3cnccc23)c(C2CC2)nc1N1CCN(C(=O)C2CC2)C(CC(F)(F)F)C1 (stereo not drawn) [Compound 423, 2-(4-(cyclopropanecarbonyl)-3-(2,2,2-trifluoroethyl)piperazin-1-yl)-6-cyclopropyl-5-(isoquinolin-5-yl)nicotinonitrile]
> 6.30 |  | CNS(=O)(=O)c1ccc(-c2c(C3CC3)nc(N3CCN(C(=O)CCOC)[C@H](C)C3)c(C#N)c2C)cc1 [Compound 331, (R)-4-{5-cyano-2-cyclopropyl-6-[4-(3-methoxy-propionyl)-3-methyl-piperazin-1-yl]-4-methyl-pyridin-3-yl}-N-methyl-benzenesulfonamide]
 | 4.82 to 5.30 | CC(C)c1cc(-c2ccccc2)nc(N2CCN(C(=O)c3ccoc3)C(C)C2)c1C#N (stereo not drawn) [Compound 111]
> 6.30 |  | COCCC(=O)N1CCN(c2nc(C3CC3)c(-c3cnnc(OS(=O)(=O)C(F)(F)F)c3)cc2C#N)C[C@H]1C [Compound 614, (R)-5-(5-cyano-2-cyclopropyl-6-(4-(3-methoxypropanoyl)-3-methylpiperazin-1-yl)pyridin-3-yl)pyridazin-3-yl trifluoromethanesulfonate]
 | 4.82 to 5.30 | CC1CN(c2nc(-c3ccccc3)c(-c3ccccc3)cc2C#N)CCN1C(=O)c1ccoc1 (stereo not drawn) [Compound 118, 2-(4-(furan-3-carbonyl)-3-methylpiperazin-1-yl)-5,6-diphenylnicotinonitrile]
 | 4.82 to 5.30 | N#Cc1c(-c2ccccc2)cc(C2CCCCC2)nc1N1CCN(C(=O)c2ccco2)CC1 [Compound 137, 6-cyclohexyl-2-(4-(furan-2-carbonyl)piperazin-1-yl)-4-phenylnicotinonitrile]
 | ≥ 6.00 | COCCC(=O)N1CCN(c2nc(C3CC3)c(-c3ccccc3F)cc2C#N)C[C@H]1C [Compound 249, (R)-6-cyclopropyl-5-(2-fluorophenyl)-2-(4-(3-methoxypropanoyl)-3-methylpiperazin-1-yl)nicotinonitrile]
